# Test results as given in patent US20110092526A1, “Adamantyl Iminocarbonyl-Substituted Pyrimidines As Inhibitors Of 11-Beta-HSD1 826” (ASTRAZENECA AB, priority 2009, published 2011).
# Molecular target: T1, human 11βHSD1 enzyme (Homo sapiens, UniProt P28845)
# T1 construct: N terminal 6-His tagged full length human 11βHSD1 enzyme; 6-His (N); made in house
# Test: 11βHSD1 competitive HTRF assay (conversion of cortisone to cortisol)
# Assay type: biochemical
# Conditions: recombinant N terminal 6-His tagged full length human 11βHSD1; cortisone 160 nM; 25 minutes at 37° C.; pH 7.5
# Description: The evaluation of compounds described herein was carried out using a baculovirus expressed N terminal 6-His tagged full length human 11βHSD1 enzyme (*1). The enzyme was purified from a detergent solublised cell lysate, using a copper chelate column. Inhibitors of 11βHSD1 reduce the conversion of cortisone to cortisol, which is identified by an increase in signal, in the above assay.
# Compounds to be tested were dissolved in dimethyl sulphoxide (DMSO) to 10 mM and diluted further in assay buffer containing 1% DMSO to 10 fold the final assay concentration. Diluted compounds were then plated into black 384 well plates (Matrix, Hudson N.H., USA).
# The assay plates were incubated for 25 minutes at 37° C. after which time the reaction was stopped by the addition of 10 μl of 0.5 mM glycerrhetinic acid plus conjugated cortisol (D2**). 10 μl of anti-cortisol Cryptate was then added and the plates sealed and incubated for 6 hours at room temperature. Fluorescence at 665 nm and 620 nm was measured and the 665 nm:620 nm ratio calculated using an Envision plate reader.
# **D2 is a cortisol tracer which competes with native cortisol produced in the reaction for the monoclonal anti-cortisol antibody labelled with europium-cryptate. The antibody will fluoresce when it is bound to the cortisol tracer complex (D2 labelled with cortisol and glycyrrhetinic acid coupled together). Thus providing an accurate measure of 11beta-HSD1 activity.
# T1 sequence (P28845 whole entry): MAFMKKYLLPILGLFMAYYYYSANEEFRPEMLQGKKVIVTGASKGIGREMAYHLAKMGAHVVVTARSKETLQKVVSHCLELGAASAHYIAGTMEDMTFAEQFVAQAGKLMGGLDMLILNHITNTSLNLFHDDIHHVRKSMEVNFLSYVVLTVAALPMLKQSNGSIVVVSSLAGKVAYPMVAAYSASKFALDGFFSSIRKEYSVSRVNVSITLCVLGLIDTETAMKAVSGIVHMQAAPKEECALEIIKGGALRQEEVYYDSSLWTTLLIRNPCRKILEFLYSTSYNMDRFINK
row,Structure (SMILES),IC50 [nM]
1,"CC(C)c1nc(N[C@H]2CCOC2)ncc1C(=O)N[C@H]1C2CC3CC1C[C@@](O)(C3)C2 [Example 20, N-(5-hydroxy-2-adamantyl)-4-isopropyl-2-[[(3S)-tetrahydrofuran-3-yl]amino]pyrimidine-5-carboxamide]",46
2,"O=C(N[C@H]1C2CC3CC1C[C@@](O)(C3)C2)c1cnc(N[C@H]2CCOC2)nc1C(F)(F)F [Example 23, N-(5-hydroxy-2-adamantyl)-2-[[(3S)-oxolan-3-yl]amino]-4-(trifluoromethyl)pyrimidine-5-carboxamide]",95
3,"O=C(N[C@H]1C2CC3CC1C[C@@](O)(C3)C2)c1cnc(N[C@@H]2CCOC2)nc1N1CCCC1 [Example 37, N-(5-hydroxy-2-adamantyl)-4-pyrrolidin-1-yl-2-[[(3R)-tetrahydrofuran-3-yl]amino]pyrimidine-5-carboxamide]",777
4,"O=C(N[C@H]1C2CC3CC1C[C@@](O)(C3)C2)c1cnc(N[C@H]2CCOC2)nc1N1CCCC1 [Example 38, N-(5-hydroxy-2-adamantyl)-4-pyrrolidin-1-yl-2-[[(3S)-tetrahydrofuran-3-yl]amino]pyrimidine-5-carboxamide]",1600
5,"O=C(N[C@H]1C2CC3CC1C[C@@](O)(C3)C2)c1cnc(N[C@@H]2CCOC2)nc1-n1cccn1 [Example 39, N-(5-hydroxy-2-adamantyl)-4-pyrazol-1-yl-2-[[(3R)-tetrahydrofuran-3-yl]amino]pyrimidine-5-carboxamide]",708
6,"O=C(N[C@H]1C2CC3CC1C[C@@](O)(C3)C2)c1cnc(N[C@H]2CCOC2)nc1-n1cccn1 [Example 40, N-(5-hydroxy-2-adamantyl)-4-pyrazol-1-yl-2-[[(3S)-tetrahydrofuran-3-yl]amino]pyrimidine-5-carboxamide]",2270
7,"CN(C(=O)c1cnc(N[C@@H]2CCOC2)nc1C1CCCC1)[C@H]1C2CC3CC1C[C@@](O)(C3)C2 [Example 41, 4-Cyclopentyl-N-(5-hydroxy-2-adamantyl)-N-methyl-2-[[(3R)-oxolan-3-yl]amino]pyrimidine-5-carboxamide]",46
8,"O=C(N[C@H]1C2CC3CC1C[C@@](C(=O)O)(C3)C2)c1cnc(N[C@H]2CCOC2)nc1C1CCCC1 [Example 44, 4-[[4-cyclopentyl-2-[[(3S)-tetrahydrofuran-3-yl]amino]pyrimidine-5-carbonyl]amino]adamantane-1-carboxylic acid]",424
9,"CS(=O)(=O)[C@]12CC3CC(C1)[C@H](NC(=O)c1cnc(N[C@H]4CCOC4)nc1C1CCCC1)C(C3)C2 [Example 45, 4-cyclopentyl-N-(5-methylsulfonyl-2-adamantyl)-2-[[(3S)-tetrahydrofuran-3-yl]amino]pyrimidine-5-carboxamide]",273

# The remaining lines, values ahead:
row,IC50 [nM],Structure (SMILES)
1,24,"O=C(N[C@H]1C2CC3CC1C[C@@](O)(C3)C2)c1cnc(NC2CCS(=O)(=O)C2)nc1C1CCCC1 (stereo partly drawn) [Example 5, 4-cyclopentyl-2-[(1,1-dioxothiolan-3-yl)amino]-N-(5-hydroxy-2-adamantyl)pyrimidine-5-carboxamide]"
2,20,"CN1CC(Nc2ncc(C(=O)N[C@H]3C4CC5CC3C[C@@](O)(C5)C4)c(C3CCCC3)n2)CC1=O (stereo partly drawn) [Example 16, 4-cyclopentyl-N-(5-hydroxy-2-adamantyl)-2-[(1-methyl-5-oxo-pyrrolidin-3-yl)amino]pyrimidine-5-carboxamide]"
3,15,"CCN1CC(Nc2ncc(C(=O)N[C@H]3C4CC5CC3C[C@@](O)(C5)C4)c(C3CCCC3)n2)CC1=O (stereo partly drawn) [Example 17, 4-cyclopentyl-2-[(1-ethyl-5-oxo-pyrrolidin-3-yl)amino]-N-(5-hydroxy-2-adamantyl)pyrimidine-5-carboxamide]"
4,23,"CN1C(=O)CC[C@@H]1CNc1ncc(C(=O)N[C@H]2C3CC4CC2C[C@@](O)(C4)C3)c(C2CCCC2)n1 [Example 18, 4-cyclopentyl-N-(5-hydroxy-2-adamantyl)-2-[[(2R)-1-methyl-5-oxo-pyrrolidin-2-yl]methylamino]pyrimidine-5-carboxamide]"
5,42,"CC(C)c1nc(N[C@@H]2CCOC2)ncc1C(=O)N[C@H]1C2CC3CC1C[C@@](O)(C3)C2 [Example 21, N-(5-hydroxy-2-adamantyl)-4-isopropyl-2-[[(3R)-tetrahydrofuran-3-yl]amino]pyrimidine-5-carboxamide]"
6,25,"O=C(N[C@H]1C2CC3CC1C[C@@](O)(C3)C2)c1cnc(N[C@@H]2CCOC2)nc1C(F)(F)F [Example 22, N-(5-hydroxy-2-adamantyl)-2-[[(3R)-oxolan-3-yl]amino]-4-(trifluoromethyl)pyrimidine-5-carboxamide]"
7,45,"CCOc1nc(N[C@@H]2CCOC2)ncc1C(=O)N[C@H]1C2CC3CC1C[C@@](O)(C3)C2 [Example 24, 4-Ethoxy-N-(5-hydroxy-2-adamantyl)-2-[[(3R)-tetrahydrofuran-3-yl]amino]pyrimidine-5-carboxamide]"
8,37,"CCOc1nc(N[C@H]2CCOC2)ncc1C(=O)N[C@H]1C2CC3CC1C[C@@](O)(C3)C2 [Example 25, 4-Ethoxy-N-(5-hydroxy-2-adamantyl)-2-[[(3S)-tetrahydrofuran-3-yl]amino]pyrimidine-5-carboxamide]"
9,19,"CCCOc1nc(N[C@@H]2CCOC2)ncc1C(=O)NC1C2CC3CC1CC(O)(C3)C2 (stereo partly drawn) [Example 33, N-(5-hydroxy-2-adamantyl)-4-propoxy-2-[[(3R)-tetrahydrofuran-3-yl]amino]pyrimidine-5-carboxamide]"
10,21,"CCCOc1nc(N[C@H]2CCOC2)ncc1C(=O)N[C@H]1C2CC3CC1C[C@@](O)(C3)C2 [Example 34, N-(5-hydroxy-2-adamantyl)-4-propoxy-2-[[(3S)-tetrahydrofuran-3-yl]amino]pyrimidine-5-carboxamide]"
11,32,"CN(C(=O)c1cnc(N[C@H]2CCOC2)nc1C1CCCC1)[C@H]1C2CC3CC1C[C@@](O)(C3)C2 [Example 42, 4-cyclopentyl-N-(5-hydroxy-2-adamantyl)-N-methyl-2-[[(3S)-oxolan-3-yl]amino]pyrimidine-5-carboxamide]"
12,17,"NC(=O)[C@]12CC3CC(C1)[C@H](NC(=O)c1cnc(N[C@H]4CCOC4)nc1C1CCCC1)C(C3)C2 [Example 43, N-(5-carbamoyl-2-adamantyl)-4-cyclopentyl-2-[[(3S)-tetrahydrofuran-3-yl]amino]pyrimidine-5-carboxamide]"
